This is an account of results in DBAASP.

In brackets after ≈: the same amount, converted by molar mass. Several values for one entry are separate records, joined by “and”; a condition that tells them apart may be missing. Equal entries are not always repeated.

Some test systems named below: Escherichia coli AB94012; Staphylococcus aureus; Yersinia pestis KIM pYV; Aspergillus fumigatus.
Holding throughout (assay): ≥ marks a high value that may be exact or a test limit, other limits are often not marked, values filed in µg/mL are converted to µM
The test system of test [1] is Staphylococcus aureus P1389.
Test [2] has as its system Staphylococcus epidermidis AB208188.
The test system of test [3] is Staphylococcus aureus P1374.
Test [4] deals with Escherichia coli ATCC 25922.
In test [5] the test system is Pseudomonas aeruginosa ATCC 9027.
The test system of test [6] is Bacillus subtilis AB91021.
The test system of test [7] is Staphylococcus aureus P1381.
Test [8] concerns Staphylococcus aureus ATCC 6538.
The subject of test [9] is Staphylococcus epidermidis AB208187.
The subject of test [10] is Micrococcus luteus AB93113.
For test [11], the system named is Staphylococcus aureus ATCC 25923.
Test [12] concerns Bacillus thuringiensis AB92037.
Test [13] has as its system Staphylococcus aureus AB208193.
The test system of test [14] is Staphylococcus aureus AB94004.
In test [15] the test system is Brucella abortus 9.49 (per-).
Test [16] concerns Staphylococcus aureus ΔmprFpRBsyn.
In test [17] the test system is Acinetobacter baumannii ATCC 19606.
Test [18] concerns Staphylococcus aureus ATCC 43300.
Test [19] relates to Bordetella bronchiseptica CUN 11844-99.
Test [20] relates to Staphylococcus aureus ΔmprF.
The test system of test [21] is Pseudomonas aeruginosa CUN 4158-02.
Test [22] relates to Micrococcus luteus ATCC 9341.
Test [23] has as its system Candida albicans ATCC 36232.
Test [24] deals with Candida albicans ATCC 3623.
Test [25] relates to Escherichia coli ATCC 2592.
Test [26] relates to Fusarium culmorum MUCL 30162.
Test [27] has as its system Trichophyton mentagrophytes.
In test [28] the test system is Alternaria brassicicola MUCL 20297.
The subject of test [29] is Neurospora crassa CBS 327-54.
Test [30] deals with Fusarium oxysporum MUCL 909.
Test [31] concerns Fusarium haematococcum 160.2.2.

As for `CC[C@H](C)[C@H](NC(=O)[C@H](CCCCN)NC(=O)[C@@H](NC(=O)[C@H](C)NC(=O)[C@H](CC(C)C)NC(=O)[C@H](CCCCN)NC(=O)[C@H](Cc1ccccc1)NC(=O)[C@H](CC(C)C)NC(=O)[C@H](Cc1cnc[nH]1)NC(=O)CNC(=O)[C@H](Cc1ccccc1)NC(=O)[C@@H](N)Cc1ccccc1)[C@@H](C)O)C(=O)N[C@H](C(=O)N1CCC[C@H]1C(=O)N[C@@H](CO)C(=O)N[C@@H](CC(C)C)C(=O)N[C@@H](Cc1ccccc1)C(=O)N[C@@H](CCC(N)=O)C(=O)O)[C@@H](C)CC` [FFGHLFKLATKIIPSLFQ], the MIC in test [1] worked out at 3 µM (≈ 6.32 µg/mL); in test [2], 1.5 µM (≈ 3.16 µg/mL); in test [3], 3 µM (≈ 6.32 µg/mL); in [4], 11.9 µM (≈ 25.1 µg/mL); in test [5], 11.9 µM (≈ 25.1 µg/mL); in test [6], 3 µM (≈ 6.32 µg/mL). For the same compound, the MIC in the test on Escherichia coli AB94012 was 23.7 µM (≈ 49.9 µg/mL); in test [7] it was 1.5 µM (≈ 3.16 µg/mL); in [8] it was 1.5 µM (≈ 3.16 µg/mL); in [9] it was 3 µM (≈ 6.32 µg/mL); in test [10], not below 47.5 µM; in test [11] it was 3 µM (≈ 6.32 µg/mL). The MIC in test [12] worked out at 3 µM (≈ 6.32 µg/mL); in [13] it was 3 µM (≈ 6.32 µg/mL); in test [14], 1.5 µM (≈ 3.16 µg/mL).

With `CC[C@H](C)[C@H](NC(=O)[C@H](CCCN=C(N)N)NC(=O)[C@H](CCCN=C(N)N)NC(=O)[C@H](CC(C)C)NC(=O)[C@H](Cc1ccccc1)NC(=O)[C@@H](NC(=O)[C@H](CCCN=C(N)N)NC(=O)[C@H](CCSC)NC(=O)[C@@H](NC(=O)[C@H](CCCCN)NC(=O)[C@H](CCCCN)NC(=O)[C@H](CO)NC(=O)[C@@H](NC(=O)CNC(=O)[C@H](CCCN=C(N)N)NC(=O)[C@H](CC(C)C)NC(=O)[C@@H](NC(=O)[C@@H](N)CCCCN)[C@@H](C)CC)C(C)C)[C@@H](C)CC)[C@@H](C)O)C(=O)N[C@@H](CO)C(=O)N[C@@H](CCCCN)C(=O)N[C@@H](CC(=O)O)C(=O)N[C@H](C(=O)N[C@@H](CC(C)C)C(=O)N[C@H](C(=O)NCC(=O)N[C@@H](CCCCN)C(=O)N[C@@H](CCCCN)C(N)=O)[C@@H](C)O)[C@@H](C)CC` [KILRGVSKKIMRTFLRRISKDILTGKK], the MIC in test [15] is 0.628 µM (≈ 2 µg/mL); with Staphylococcus aureus it was 20.1 µM (≈ 64 µg/mL); in test [4], 1.26 µM (≈ 4 µg/mL); in [16], 1.26 µM (≈ 4 µg/mL); in test [17] it was 0.628 µM (≈ 2 µg/mL); in [18], 40.2 µM (≈ 128 µg/mL). Further, the MIC stood at 1.26 µM (≈ 4 µg/mL) in test [19], 5.02 µM (≈ 16 µg/mL) in the test on Yersinia pestis KIM pYV, 1.26 µM (≈ 4 µg/mL) in test [20] and 1.26 µM (≈ 4 µg/mL) in test [21].

On to `CC(C)[C@H](NC(=O)[C@H](CCCCN)NC(=O)[C@H](Cc1ccccc1)NC(=O)[C@@H](NC(=O)[C@@H](NC(=O)[C@H](CCCCN)NC(=O)[C@H](CCCCN)NC(=O)[C@@H](N)CCCCN)C(C)C)C(C)C)C(=O)N[C@@H](CCCCN)C(=O)N[C@@H](Cc1ccccc1)C(=O)N[C@@H](CCCCN)C(N)=O` [KKKVVFKVKFK], for which the MIC in [22] was 2.27 µM (≈ 3.13 µg/mL); in [8] it was 2.27 µM (≈ 3.13 µg/mL); in test [23], 9.07 µM and 3.21 µM and 4.53 µM.

For the compound `CC(C)C[C@H](NC(=O)[C@H](CC(C)C)NC(=O)[C@H](CCCCN)NC(=O)[C@H](CC(C)C)NC(=O)[C@H](CC(C)C)NC(=O)[C@H](CC(C)C)NC(=O)[C@H](CCCCN)NC(=O)[C@H](CC(C)C)NC(=O)[C@H](CC(C)C)NC(=O)[C@H](CC(C)C)NC(=O)[C@@H](N)CCCCN)C(=O)N[C@@H](CCCCN)C(N)=O` [KLLLKLLLKLLK], the MIC is 4.39 µM (≈ 6.3 µg/mL) in [22]; 8.7 µM (≈ 12.5 µg/mL) in test [5]; 4.39 µM (≈ 6.3 µg/mL) in [24]; 11.6 µM (≈ 16.7 µg/mL) in test [8]; 11.6 µM (≈ 16.7 µg/mL) in test [25].

`CC[C@H](C)[C@H](NC(=O)[C@H](CO)NC(=O)[C@H](CC(C)C)NC(=O)[C@@H](NC(=O)[C@@H](N)CCCN=C(N)N)[C@@H](C)CC)C(=O)N[C@@H](CC(C)C)C(=O)N[C@@H](CCCN=C(N)N)C(=O)N[C@@H](Cc1cnc[nH]1)C(=O)N[C@@H](CCC(N)=O)C(=O)N[C@@H](CC(N)=O)C(=O)N[C@@H](CC(C)C)C(=O)N[C@@H](CC(C)C)C(=O)N[C@@H](CCCCN)C(=O)N[C@@H](CCC(=O)O)C(=O)N[C@@H](CC(C)C)C(=O)N[C@@H](CCC(N)=O)C(=O)N[C@@H](CC(=O)O)C(=O)N[C@@H](CC(C)C)C(=O)N[C@@H](C)C(=O)N[C@@H](CC(C)C)C(=O)N[C@@H](CCC(N)=O)C(=O)NCC(=O)N[C@@H](C)C(=O)N[C@@H](CCCCN)C(=O)O` [RILSILRHQNLLKELQDLALQGAK]: the MIC in [26] was determined as 10 µM (≈ 27.7 µg/mL); in [27], 30 µM (≈ 83.1 µg/mL); in [28], 10 µM (≈ 27.7 µg/mL); in test [29] it was 5 µM (≈ 13.9 µg/mL); in test [30], 30 µM (≈ 83.1 µg/mL); against Aspergillus fumigatus, 30 µM (≈ 83.1 µg/mL). Moreover, the MIC in [31] came to 7 µM (≈ 19.4 µg/mL).

By MIC is commonly meant the least concentration at which growth counts as inhibited.
